Results on three molecules are retold here after publication PMC10060354, “Discovery of a small molecule ligand of FRS2 that inhibits invasion and tumor growth” (Cellular Oncology, 2022).

The nature of series [1]: Cell viability (cytotoxicity, MTT) using HepG2. The format is cell-based, human. The following applies: human, HepG2 cells, 72 h, summary sheet, read-out: MTT (AC50) Conc at which 50% of maximum efficacy is reached. The gist of the method: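 Compounds were tested at 8 concentrations in triplicate on HepG2 cells plated 24 h beforehand, with 72 h exposure in 1% DMSO medium. MTT was loaded 1 h before the end, solubilized in DMSO and read at 570 nm. Minimum effective concentration is the lowest concentration exceeding the significance level, given dose-response or two consecutive points above it.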

Another series deals with T1, GB1-FRS2_PTB:FGFR_PEP (Homo sapiens, UniProt Q8WU20).
T1 construct: FRS2-PTB 11-140aa; 6xHis (N); made in house; host or cells: E. coli BL21 (DE3) for the protein
T1 sequence (Q8WU20 11-140): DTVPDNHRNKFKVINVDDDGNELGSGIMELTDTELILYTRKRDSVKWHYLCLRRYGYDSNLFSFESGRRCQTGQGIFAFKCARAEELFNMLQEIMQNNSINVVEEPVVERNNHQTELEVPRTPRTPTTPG
Nature of the series: nanoDSF competition assay with the FGFR peptide. The format is binding. Particulars: PTB domain:FGFR peptide 1:5; 500 μM compound. The protocol:
Purified FRS2_PTB or GB1_FRS2_PTB protein tagged with 6 × Histidine residues and the B1 immunoglobulin binding domain of the streptococcal protein G (GB1) were diluted in the protein buffer (100 mM sodium phosphate, 50 mM NaCl, 0.5 mM EDTA, 50 mM arginine, 1 mM TCEP, pH 7.0) to 30 μM, GB-1 to 40 μM. FGFR_PEP, compounds or paracetamol (PARA) as negative control were dissolved at 1 mM in the protein buffer supplemented with 10% DMSO. Compound and protein were mixed at 1:1 volume ratio yielding a final concentration of 15 μM and 20 μM for FRS2_PTB/GB1_FRS2_PTB and GB1, respectively, as well as 500 μM for FGFR_PEP or compounds. The mixture was incubated for 15 min. Each compound was measured in triplicates. Protein controls were measured in six replicates in the beginning. The quality of the screen was assessed by the Z-factor. nanoDSF validation studies were performed on a Prometheus® system in high sensitivity capillaries. Samples were heated with 1 °C/min from 20 to 95 °C. Each compound was measured in triplicates. GB1-FRS2_PTB and GB1 were diluted in the protein buffer (100 mM sodium phosphate, 50 mM NaCl, 0.5 mM EDTA, 50 mM arginine, 1 mM TCEP, pH 7.0) to 30 μM. Compounds 3.3, 3.4, 3.18 as well as the 3.18 analogues were dissolved in 100% DMSO at 50 or 100 mM and further diluted to 1 mM with a final […]. FGFR_PEP was dissolved at 1 mM in the protein buffer supplemented with 10% DMSO. Compound and protein were mixed at 1:1 volume ratio yielding final concentrations of 15 μM protein and 500 μM for the compounds. FGFR_PEP was measured against both GB1-FRS2_PTB and GB1, all other compounds only against GB1-FRS2_PTB. The mixture was incubated for 15 min before measurement. The data was analyzed for both the ratio of signals at 330 and 350 nm and at 350 nm alone. For the competition assays, the PTB domain and the FGFR peptide were mixed at a 1:5 ratio, and ligand competition was assayed in the presence of 500 μM compound.
For orientation: DSF heats the sample and reads unfolding from a dye or from intrinsic fluorescence.

Series [2] is described as follows: In vivo bioavailability / PK after 1 mg/kg IV or 10 mg/kg PO. The arrangement: species or system Male ICR mice. The method, then:
In vivo bioavailability studies were performed by Pharmacology Discovery Services Taiwan, Ltd., (New Taipei City, Taiwan). Male ICR mice weighing 20—30 g were provided by BioLasco Taiwan (under Charles River Laboratories Licensee). Animals were acclimated for 3 days prior to use and were confirmed with good health. All animals were maintained in a hygienic environment with controlled temperature (20—24 °C), humidity (30%—70%) and 12 h light/dark cycles. Free access to sterilized standard lab diet [MFG (Oriental Yeast Co., Ltd., Japan)] and autoclaved tap water. A pharmacokinetic (PK) study was performed in male ICR mice following intravenous (IV) and oral (PO) administration of compound 7 and E12 and IV administration of the test compound 3.14. The three test compounds (7, E12 and 3.14) were formulated in 1% dimethyl sulfoxide (DMSO)/10% Solutol® HS-15/ phosphate buffered saline (PBS) at 0.2 mg/mL and 1 mg/mL for IV and PO administration, respectively. The dosing volumes were 5 ml/kg for IV and 10 ml/kg for PO. The dose was 1 mg/kg for IV and 10 mg/kg for PO routes.

The mark [3] stands for this setting: 10 mg/kg PO, time 0.167 h, mouse#1-3.
The mark [4] stands for this setting: 10 mg/kg PO, time 0.5 h, mouse#1-3.
Setting [5] is: 10 mg/kg PO, time 1 h, mouse#1-3.
[6] abbreviates: 10 mg/kg PO, time 2 h, mouse#1-3.
[7] abbreviates: 10 mg/kg PO, time 4 h, mouse#1-3.
Setting [8] is: 10 mg/kg PO, time 6 h, mouse#1-3.
The mark [9] stands for this setting: 10 mg/kg PO, time 8 h, mouse#1-3.
The mark [10] stands for this setting: 10 mg/kg PO, time 24 h, mouse#1-3.
The mark [11] stands for this setting: male, ICR, mouse, plasma, 1 mg/kg, IV.
Setting [12] is: male, ICR, mouse, plasma, 10 mg/kg, PO.
Where [13] appears, read: mg/kg IV, time 0.167 h, mouse#1-3.
Setting [14] is: mg/kg IV, time 0.5 h, mouse#1-3.

Where “and” joins values, the source holds several entries; their conditions need not be identical. Equal values may be shown once. Read-outs that look alike come from different tables or passages of the source. Where only a bound is given, the exact number is not on record here.

In general, AC50 refers to the concentration at which the activity in the assay is half-maximal. The term AUC(0-inf) denotes the area under the concentration-time curve extrapolated to infinity. Low values mean low exposure, high ones high exposure. The MRT is the average time that molecules of a dose stay in the body. A word on the half-life: it is the time needed for the level to fall by half in the phase considered. One may read the Tmax as the time at which the peak concentration occurs. Broadly, the bioavailability is the share of a dose that reaches the circulation, judged against a reference dose that is usually intravenous. A high value points to good availability.

Take `COc1ncc(C(C)NC2CC(C)(C)NC(C)(C)C2)cc1Cl` (centres unmarked) [Compound 3.3]: in series [1], the AC50 at 72 h is above 100 µM.
For `O=[N+]([O-])c1c(Cl)cc(O)c2c1C1C=CCC1C(c1ccc(Cl)cc1Cl)N2` (centres unmarked) [Compound 8], the “nanoDSF competition with FGFR peptide (result in words)” value at GB1-FRS2_PTB:FGFR_PEP was “negative shift in compound-mixed samples”. Moreover, the half-maximal activity concentration (AC50) at 72 h in series [1] is 12.4 µM.
As for `Cc1[nH]nc(-c2ccc(O)c(C)c2O)c1-c1nc2ccccc2s1` [Compound E12], the AC50 at 72 h in series [1] was found to be 23.7 µM. Moreover, the “AUC Extr (%)” value is reported as 0.5% in series [2] (1 mg/kg, IV) and 14.8% in series [2] (10 mg/kg, PO). For the same molecule, the “in vivo PK raw, level per mouse” value in series [2] (setting [3]) was 13 and 10 and 15; in series [2] (setting [4]), 16 and 11 and 3; in series [2] (setting [5]), 1 and 2 and 10; in series [2] (setting [6]) it was 3 and 0 and 2; in series [2] (setting [7]), 5 and 2 (2×); in series [2] (setting [8]), 0 (2×) and 2. The “in vivo PK raw, level per mouse” value in series [2] (setting [9]) was 1; in series [2] (setting [10]) it was 0; in series [2] (setting [13]) it was 459 and 369 and 455; in series [2] (setting [14]), 103 and 104 and 127; in series [2] (mg/kg IV, time 1 h, mouse#1-3), 10 and 13 and 14; in series [2] (mg/kg IV, time 2 h, mouse#1-3), 2. In addition, the “in vivo PK raw, level per mouse” value in series [2] (mg/kg IV, time 4 h, mouse#1-3) is recorded as 0; in series [2] (mg/kg IV, time 6 h, mouse#1-3) it was 0; in series [2] (mg/kg IV, time 8 h, mouse#1-3), 0; in series [2] (mg/kg IV, time 24 h, mouse#1-3) it was 0. Besides, the “in vivo PK raw, level per mouse (µM)” value in series [2] (setting [3]) is 0.02964 µM and 0.04446 µM; in series [2] (setting [4]) it was 0.04742 µM and 0.0326 µM and 0.008892 µM; in series [2] (setting [5]) it was 0.002964 µM and 0.005928 µM and 0.02964 µM; in series [2] (setting [6]), 0.008892 µM and 0 µM and 0.005928 µM; in series [2] (setting [7]) it was 0.01482 µM and 0.005928 µM (2×); in series [2] (setting [8]), 0 µM (2×) and 0.005928 µM. Besides, the “in vivo PK raw, level per mouse (µM)” value in series [2] (setting [9]) was 0.002964 µM; in series [2] (setting [10]), 0 µM; in series [2] (setting [13]) it was 1.094 µM and 1.349 µM; in series [2] (setting [14]) it was 0.3082 µM and 0.3764 µM; in series [2] (mg/kg IV, time 1 h, mouse#1-3), 0.03853 µM and 0.04149 µM; in series [2] (mg/kg IV, time 2 h, mouse#1-3) it was 0.005928 µM. Besides, the “in vivo PK raw, level per mouse (µM)” value in series [2] (mg/kg IV, time 4 h, mouse#1-3) came out at 0 µM; in series [2] (mg/kg IV, time 6 h, mouse#1-3), 0 µM; in series [2] (mg/kg IV, time 8 h, mouse#1-3) it was 0 µM; in series [2] (mg/kg IV, time 24 h, mouse#1-3), 0 µM. Besides, the “AUC/D” value in series [2] (10 mg/kg, PO) was 3 kg·ng·h/mL/mg. For the same molecule, the “AUClast (H*ng/ml)” value in series [2] (10 mg/kg, PO) came out at 22 H*ng/ml. Besides, the AUC(0-t) in series [2] (male, ICR, mouse, plasma, iv, 1 mg/kg, IV, read-out: AUClast) was determined as 85 ng·h/mL; in series [2] (male, ICR, mouse, plasma, iv, 1 mg/kg, mice, 1 mg/kg IV, read-out: AUClast after IV administration) it was 85 ng·h/mL; in series [2] (male, ICR, mouse, plasma, po, 10 mg/kg, mice, 10 mg/kg PO, read-out: AUClast after PO administration) it was 22 ng·h/mL. Besides, the concentration at 0.167 h amounted to 1360 nM in series [2] (male, ICR, mouse, plasma, iv, 1 mg/kg, mg/kg IV, time 0.167 h, mouse#1-3, read-out: in vivo PK raw, level per mouse) and 38.5 nM in series [2] (male, ICR, mouse, plasma, oral, 10 mg/kg, 10 mg/kg PO, time 0.167 h, mouse#1-3, read-out: in vivo PK raw, level per mouse). For the same molecule, the concentration at 0.5 h in series [2] (male, ICR, mouse, plasma, iv, 1 mg/kg, mg/kg IV, time 0.5 h, mouse#1-3, read-out: in vivo PK raw, level per mouse) was found to be 305 nM. Moreover, the concentration at 1 h in series [2] (male, ICR, mouse, plasma, iv, 1 mg/kg, mg/kg IV, time 1 h, mouse#1-3, read-out: in vivo PK raw, level per mouse) was 29.6 nM. The concentration at 2 h in series [2] (male, ICR, mouse, plasma, iv, 1 mg/kg, mg/kg IV, time 2 h, mouse#1-3, read-out: in vivo PK raw, level per mouse) is 5.93 nM. The concentration at 4 h in series [2] (male, ICR, mouse, plasma, iv, 1 mg/kg, mg/kg IV, time 4 h, mouse#1-3, read-out: in vivo PK raw, level per mouse) is 0 nM. Besides, in series [2] (male, ICR, mouse, plasma, iv, 1 mg/kg, mg/kg IV, time 6 h, mouse#1-3, read-out: in vivo PK raw, level per mouse), the concentration at 6 h was 0 nM. The concentration at 8 h in series [2] (male, ICR, mouse, plasma, iv, 1 mg/kg, mg/kg IV, time 8 h, mouse#1-3, read-out: in vivo PK raw, level per mouse) was determined as 0 nM; in series [2] (male, ICR, mouse, plasma, oral, 10 mg/kg, 10 mg/kg PO, time 8 h, mouse#1-3, read-out: in vivo PK raw, level per mouse) it was 2.96 nM. Moreover, the concentration at 24 h in series [2] (male, ICR, mouse, plasma, iv, 1 mg/kg, mg/kg IV, time 24 h, mouse#1-3, read-out: in vivo PK raw, level per mouse) is 0 nM; in series [2] (male, ICR, mouse, plasma, oral, 10 mg/kg, 10 mg/kg PO, time 24 h, mouse#1-3, read-out: in vivo PK raw, level per mouse) it was 0 nM. Also, the AUC(0-inf) came to 86 ng·h/mL in series [2] (setting [11]) and 26 ng·h/mL in series [2] (setting [12]). Besides, the values for the mean residence time (MRT) in series [2] (setting [11]) and in series [2] (setting [12]) were 6.6 min and 233 min, respectively. This molecule also yielded a clearance in series [2] (setting [11]) of 195 mL/min/kg. In addition, the half-life in series [2] (setting [11]) is 9 min; in series [2] (setting [12]), 163 min. The Vd in series [2] (male, ICR, mouse, plasma, 1 mg/kg, IV, read-out: Vss) stood at 1.3 L/kg. Moreover, the Tmax in series [2] (setting [12]) turned out to be 10.2 min. The molecule also yielded a bioavailability in series [2] (setting [12]) of 3%. Also, in series [2] (male, ICR, mouse, mice, 1 mg/kg IV, plasma, read-out: C0 after IV administration), the C0 is 762 ng/mL. Besides, the Cmax in series [2] (male, ICR, mouse, mice, 10 mg/kg PO, plasma, read-out: Cmax (oral bioavailability) after PO administration) was found to be 13 ng/mL. Also, the “CL1/2 after IV administration” value in series [2] (mice, 1 mg/kg IV) is 0.15 h. The “CL1/2 after PO administration” value in series [2] (mice, 10 mg/kg PO) is reported as 2.71 h.
